Laboratory results published in patent US7163950B1, “Surfactants as malarial chloroguine resistance reversal agents” (priority 2000, dated 2007).
Read-outs that look alike come from different tables or passages of the source.

Assays:
[1] = tested on: P. falciparum; details: read-out: chloroquine IC50, control (no NPE added); control without NPE, used to calculate the degree of chloroquine resistance
Method: (§1) NPE solutions with increasing average EO content were tested for anti-P. falciparum activity and the IC50S ? of these materials were determined using a non-linear regression analysis.
(§2) P. falciparum cultures were grown in A+ blood obtained by venipuncture of volunteers. Cultures of the laboratory lines ItG and 3D7 [Dolan, 1993] and the patient isolates were maintained by the method of Trager and Jensen [Trager, 1976] using RPMI 1640 supplemented with 10% human serum and 50 μM hypoxanthine. […] In vitro drug susceptibility testing was performed using the WHO In Vitro Micro Test (Mark III) [1997]. The IC50 values were determined using a non-linear regression analysis of the dose-response curve.

[2] = tested on: P. falciparum; assay: microbe, parasite or virus in culture; details: Plasmodium falciparum, read-out: chloroquine IC50, control (no NPE added), control without NPE, used to calculate the degree of chloroquine resistance
Method: as §1, §2

With `CCN(CC)CCCC(C)Nc1ccnc2cc(Cl)ccc12` (centres unmarked) [chloroquine] the IC50 [1] was 274 ± 56 nM and the IC50 [2] was 240 ± 60 nM.
